Laboratory results reported in patent publication US20200399264A1, “4-SUBSTITUTED-2-THIAZOLE AMIDES AS ANTIVIRAL AGENTS” (Southern Research Institute, priority 2019, published 2020).

Legend:
CHIKV = test: antiviral activity against CHIKV (VTR and EC90); format: cell-based; conditions: Chikungunya virus; for log reduction at 10 µM: read-out: VTR @ 10 μM (logs)
From the text: As used herein, “EC90,” is intended to refer to the concentration of a substance (e.g., a compound or a drug) that is required for 90% agonism of a biological process, or component of a process, including a protein, subunit, organelle, ribonucleoprotein, etc. In one aspect, an EC90 can refer to the concentration of a substance that is required for 90% agonism in vivo, as further defined elsewhere herein. In a further aspect, […].

[1] = cell cytotoxicity in a cell viability assay (CC50); format: cell-based; conditions: concentration required for 50% cell survival
From the text: As used herein, “CC50,” is intended to refer to the cell cytotoxicity to the concentration of a substance (e.g., a compound or a drug) that is required for 50% cell survival in a cell viability assay in vitro.

SMILES	EC90 (CHIKV) [µM]	log reduction at 10 µM (CHIKV)	CC50 [1] [µM]
CSc1ncccc1C(=O)Nc1nc(-c2cccc(-c3ccccc3)c2)cs1 [Compound 1, N-(4-([1,1′-Biphenyl]-3-yl)thiazol-2-yl)-2-(methylthio)nicotinamide]	0.38	7.82	> 40
CSc1ncccc1C(=O)Nc1nc(-c2cccc(-c3ccccn3)c2)cs1 [Compound 2, 2-(Methylthio)-N-(4-(3-(pyridin-2-yl)phenyl)thiazol-2-yl)nicotinamide]	0.7	3.97	> 30
CSc1ncccc1C(=O)Nc1nc(-c2cccc(-c3ccncc3)c2)cs1 [Compound 3, 2-(Methylthio)-N-(4-(3-(pyridin-4-yl)phenyl)thiazol-2-yl)nicotinamide]		< 1	> 40
CSc1ncccc1C(=O)Nc1nc(-c2cccc(-c3ccc(C#N)cc3)c2)cs1 [Compound 4, N-(4-(4′-Cyano-[1,1′-biphenyl]-3-yl)thiazol-2-yl)-2-(methylthio)nicotinamide]	0.31	4.73	> 40
CSc1ncccc1C(=O)Nc1nc(-c2cccc(-c3cccc(C#N)c3)c2)cs1 [Compound 5, N-(4-(3′-Cyano-[1,1′-biphenyl]-3-yl)thiazol-2-yl)-2-(methylthio)nicotinamide]	0.098	5.25	> 40
N#Cc1ccc(-c2cccc(-c3csc(NC(=O)c4cccnc4SC(F)F)n3)c2)cc1 [Compound 6, N-(4-(4′-Cyano-[1,1′-biphenyl]-3-yl)thiazol-2-yl)-2-((difluoromethyl)thio)nicotinamide]		7.6	> 30
N#Cc1ccc(-c2cccc(-c3csc(NC(=O)c4cccnc4C(F)(F)F)n3)c2)cc1 [Compound 7, N-(4-(4′-Cyano-[1,1′-biphenyl]-3-yl)thiazol-2-yl)-2-(trifluoromethyl)nicotinamide]		5.09	8.07
CC(C)(C)c1cnc(C(=O)Nc2nc(-c3cccc(-c4ccc(C#N)cc4)c3)cs2)nc1 [Compound 8, 5-(Tert-butyl)-N-(4-(4′-cyano-[1,1′-biphenyl]-3-yl)thiazol-2-yl)pyrimidine-2-carboxamide]		< 1	> 40
CC(C)(C)c1ccc(C(=O)Nc2nc(-c3cccc(-c4ccc(C#N)cc4)c3)cs2)cc1 [Compound 9, 4-(Tert-butyl)-N-(4-(4′-cyano-[1,1′-biphenyl]-3-yl)thiazol-2-yl)benzamide]	0.28	4.68	> 40
COc1c(F)cc(C(=O)Nc2nc(-c3cccc(-c4ccc(C#N)cc4)c3)cs2)cc1F [Compound 10, N-(4-(4′-Cyano-[1,1′-biphenyl]-3-yl)thiazol-2-yl)-3,5-difluoro-4-methoxybenzamide]	0.31	7.6	> 30
N#Cc1ccc(-c2cccc(-c3csc(NC(=O)C4CCNCC4)n3)c2)cc1 [Compound 11, N-(4-(4′-Cyano-[1,1′-biphenyl]-3-yl)thiazol-2-yl)piperidine-4-carboxamide]		8.5	> 30
CSc1ncccc1C(=O)Nc1nc(-c2cncc(-c3ccc(C#N)cc3)c2)cs1 [Compound 12, N-(4-(5-(4-Cyanophenyl)pyridin-3-yl)thiazol-2-yl)-2-(methylthio)nicotinamide]		< 1	> 40
CSc1ncccc1C(=O)Nc1nc(-c2cccc(-c3ccc(C#N)cc3)n2)cs1 [Compound 13, N-(4-(6-(4-Cyanophenyl)pyridin-2-yl)thiazol-2-yl)-2-(methylthio)nicotinamide]		2.72	16.3
CSc1ncccc1C(=O)Nc1nc(-c2cccc(-c3ccc(C#N)cn3)c2)cs1 [Compound 14, N-(4-(3-(5-Cyanopyridin-2-yl)phenyl)thiazol-2-yl)-2-(methylthio)nicotinamide]	0.62	6	> 40
CSc1ncccc1C(=O)Nc1nc(-c2cccc(-c3ccc(F)cn3)c2)cs1 [Compound 15, N-(4-(3-(5-Fluoropyridin-2-yl)phenyl)thiazol-2-yl)-2-(methylthio)nicotinamide]	0.33	5.64	> 40
CSc1ncccc1C(=O)Nc1nc(-c2cccc(-c3ccc(F)nc3)c2)cs1 [Compound 16, N-(4-(3-(6-Fluoropyridin-3-yl)phenyl)thiazol-2-yl)-2-(methylthio)nicotinamide]	0.33	6.09	> 30
CSc1ncccc1C(=O)Nc1nc(-c2cc(-c3ccc(C#N)cc3)ccc2F)cs1 [Compound 17, N-(4-(4′-Cyano-4-fluoro-[1,1′-biphenyl]-3-yl)thiazol-2-yl)-2-(methylthio)nicotinamide]	0.34	5.75	25
COc1ccc(-c2ccc(C#N)cc2)cc1-c1csc(NC(=O)c2cccnc2SC)n1 [Compound 18, N-(4-(4′-Cyano-4-methoxy-[1,1′-biphenyl]-3-yl)thiazol-2-yl)-2-(methylthio)nicotinamide]		1.73	> 40
CSc1ncccc1C(=O)Nc1nc(-c2cc(F)cc(-c3ccc(C#N)cc3)c2)cs1 [Compound 19, N-(4-(4′-Cyano-5-fluoro-[1,1′-biphenyl]-3-yl)thiazol-2-yl)-2-(methylthio)nicotinamide]	0.19	6.1	> 30
COC(=O)c1cc(-c2ccc(C#N)cc2)cc(-c2csc(NC(=O)c3cccnc3SC)n2)c1 [Compound 20, Methyl 4′-cyano-5-(2-(2-(methylthio)nicotinamido)thiazol-4-yl)-[1,1′-biphenyl]-3-carboxylate]		3.23	17.6
CSc1ncccc1C(=O)Nc1nc(-c2cc(C(=O)O)cc(-c3ccc(C#N)cc3)c2)cs1 [Compound 21, 4′-cyano-5-(2-(2-(methylthio)nicotinamido)thiazol-4-yl)-[1,1′-biphenyl]-3-carboxylic Acid]		< 1	> 40
CSc1ncccc1C(=O)Nc1nc(-c2cccc(-c3ccc(C#N)c(O)c3)c2)cs1 [Compound 22, N-(4-(4′-Cyano-3′-hydroxy-[1,1′-biphenyl]-3-yl)thiazol-2-yl)-2-(methylthio)nicotinamide]	1.6	8.5	> 30
COC(=O)c1ccc(-c2cccc(-c3csc(NC(=O)c4cccnc4SC)n3)c2)cc1 [Compound 23, Methyl 3′-(2-(2-(methylthio)nicotinamido)thiazol-4-yl)-[1,1′-biphenyl]-4-carboxylate]	0.822	8.69	> 40
CSc1ncccc1C(=O)Nc1nc(-c2cccc(-c3ccc(C(=O)O)cc3)c2)cs1 [Compound 24, 3′-(2-(2-(Methylthio)nicotinamido)thiazol-4-yl)-[1,1′-biphenyl]-4-carboxylic acid]		1.49	> 40
CSc1ncccc1C(=O)Nc1nc(-c2cccc(-c3ccc(C(N)=O)cc3)c2)cs1 [Compound 25, N-(4-(4′-Carbamoyl-[1,1′-biphenyl]-3-yl)thiazol-2-yl)-2-(methylthio)nicotinamide]	0.21	2.43	17.9
